Measurements taken from patent publication US20120172340A1, “Compositions and Methods for Selectively Activating Human Sirtuins” (BIOMOL International L.P., priority 2004, published 2012).
Residue numbers refer to the chain shown, from its start.

Legend:
human SIRT1 = target: T1, human SIRT1 (Homo sapiens, UniProt Q96EB6); experiment: SIRT1 rate measurement, fluorogenic p53-382 peptide deacetylation; type: biochemical
T1 construct: made in house; host or cells: E. coli
T1 sequence (Q96EB6 1-747): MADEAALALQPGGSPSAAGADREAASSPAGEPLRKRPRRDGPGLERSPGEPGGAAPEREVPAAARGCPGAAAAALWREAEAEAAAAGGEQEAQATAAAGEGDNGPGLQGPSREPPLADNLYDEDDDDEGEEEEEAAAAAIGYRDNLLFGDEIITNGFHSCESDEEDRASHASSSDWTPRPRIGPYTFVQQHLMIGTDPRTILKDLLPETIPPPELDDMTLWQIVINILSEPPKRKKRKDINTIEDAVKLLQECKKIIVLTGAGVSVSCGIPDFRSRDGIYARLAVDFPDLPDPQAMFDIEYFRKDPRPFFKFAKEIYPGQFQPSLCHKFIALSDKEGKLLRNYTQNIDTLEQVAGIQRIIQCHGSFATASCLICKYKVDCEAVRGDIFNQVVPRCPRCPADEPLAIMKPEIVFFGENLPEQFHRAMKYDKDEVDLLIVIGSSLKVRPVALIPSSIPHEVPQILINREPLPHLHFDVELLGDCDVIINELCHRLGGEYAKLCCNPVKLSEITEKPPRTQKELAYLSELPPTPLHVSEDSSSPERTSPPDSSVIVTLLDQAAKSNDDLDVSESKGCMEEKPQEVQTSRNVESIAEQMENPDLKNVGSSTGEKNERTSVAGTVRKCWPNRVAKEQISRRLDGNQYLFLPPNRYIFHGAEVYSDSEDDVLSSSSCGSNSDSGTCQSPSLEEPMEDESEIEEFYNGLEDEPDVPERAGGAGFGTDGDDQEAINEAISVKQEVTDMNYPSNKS

SIRT5Δ1-39 = target: T2, SIRT5Δ1-39 (Homo sapiens, UniProt Q9NXA8); experiment: Deacetylation activity of N-terminally truncated SIRT5; type: biochemical; details: 500 μM resveratrol; 1 mM p53-382 peptide, 12 mM NAD+; compared with full-length SIRT5
T2 construct: in which the first 39 residues were deleted (SIRT5Δ1-39); made in house
T2 sequence (Q9NXA8 40-310): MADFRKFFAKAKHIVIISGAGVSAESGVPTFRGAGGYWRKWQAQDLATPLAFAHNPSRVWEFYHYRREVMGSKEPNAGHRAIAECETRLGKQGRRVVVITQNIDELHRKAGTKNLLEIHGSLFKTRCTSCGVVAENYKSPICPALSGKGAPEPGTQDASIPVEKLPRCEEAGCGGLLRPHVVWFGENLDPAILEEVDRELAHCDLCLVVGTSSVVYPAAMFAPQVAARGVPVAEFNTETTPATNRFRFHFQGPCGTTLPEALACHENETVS

dSir2 = target: T3, dSir2 (Drosophila melanogaster, UniProt Q9VK34, DEL53-54/DUP289-290/L518H/P746H/V753F); experiment: Resveratrol dose-response, fluorogenic deacetylation, dSir2; type: biochemical, D. melanogaster; details: 25° C., 50 μM NAD+, 50 μM Fluor de Lys acetylated lysine substrate; FIG. 1
T3 construct: made in house; host or cells: E. coli

ySir2 = target: T4, ySir2 (Saccharomyces cerevisiae, UniProt P06700); experiment: Resveratrol dose-response, fluorogenic deacetylation, ySir2; type: biochemical, S. cerevisiae (budding yeast); details: 30° C., 200 μM NAD+, 200 μM p53-382; FIG. 1
T4 construct: made in house; host or cells: E. coli

human SIRT3 = target: T5, human SIRT3 (Homo sapiens, UniProt Q9NTG7); experiment: Resveratrol dose-response, fluorogenic deacetylation, SIRT3; type: biochemical; details: 37° C., 25 μM NAD+, 25 μM p53-320; FIG. 1
T5 construct: made in house; host or cells: E. coli
T5 sequence (Q9NTG7 1-399): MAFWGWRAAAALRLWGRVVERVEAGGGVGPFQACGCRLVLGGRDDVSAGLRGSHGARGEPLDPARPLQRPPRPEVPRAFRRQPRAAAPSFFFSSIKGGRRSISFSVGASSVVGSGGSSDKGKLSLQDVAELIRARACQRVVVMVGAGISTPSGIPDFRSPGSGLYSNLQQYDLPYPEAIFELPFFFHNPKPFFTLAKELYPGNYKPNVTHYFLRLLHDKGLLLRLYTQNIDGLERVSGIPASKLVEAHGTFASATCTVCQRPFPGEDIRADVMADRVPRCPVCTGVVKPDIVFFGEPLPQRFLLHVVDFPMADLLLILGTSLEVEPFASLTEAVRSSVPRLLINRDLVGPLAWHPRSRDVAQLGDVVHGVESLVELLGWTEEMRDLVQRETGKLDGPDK

E230K mutant SIRT1 = target: T6, E230K mutant SIRT1 (Homo sapiens, UniProt Q96EB6, E230K); experiment: Resveratrol dose-response, fluorogenic deacetylation, E230K mutant SIRT1; type: biochemical; details: 37° C., 25 μM NAD+, 25 μM p53-382; FIG. 1A
T6 construct: made in house; host or cells: E. coli
T6 sequence (Q96EB6 1-747 E230K): T1 sequence (Q96EB6 1-747) with E230K

human SIRT5 = target: T7, human SIRT5 (Homo sapiens, UniProt Q9NXA8); details: 500 μM resveratrol; saturating NAD+ (12 mM)
T7 sequence (Q9NXA8 37-310): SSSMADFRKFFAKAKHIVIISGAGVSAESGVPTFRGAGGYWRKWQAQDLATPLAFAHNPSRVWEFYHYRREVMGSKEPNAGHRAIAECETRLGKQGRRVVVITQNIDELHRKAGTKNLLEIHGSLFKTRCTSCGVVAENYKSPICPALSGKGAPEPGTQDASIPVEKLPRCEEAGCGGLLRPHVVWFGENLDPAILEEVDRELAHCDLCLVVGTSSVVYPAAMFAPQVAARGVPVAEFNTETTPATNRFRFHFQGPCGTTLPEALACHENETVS

T3 sequence (Q9VK34 other isoform, or with tags, fused parts or gaps DEL53-54/DUP289-290/L518H/P746H/V753F): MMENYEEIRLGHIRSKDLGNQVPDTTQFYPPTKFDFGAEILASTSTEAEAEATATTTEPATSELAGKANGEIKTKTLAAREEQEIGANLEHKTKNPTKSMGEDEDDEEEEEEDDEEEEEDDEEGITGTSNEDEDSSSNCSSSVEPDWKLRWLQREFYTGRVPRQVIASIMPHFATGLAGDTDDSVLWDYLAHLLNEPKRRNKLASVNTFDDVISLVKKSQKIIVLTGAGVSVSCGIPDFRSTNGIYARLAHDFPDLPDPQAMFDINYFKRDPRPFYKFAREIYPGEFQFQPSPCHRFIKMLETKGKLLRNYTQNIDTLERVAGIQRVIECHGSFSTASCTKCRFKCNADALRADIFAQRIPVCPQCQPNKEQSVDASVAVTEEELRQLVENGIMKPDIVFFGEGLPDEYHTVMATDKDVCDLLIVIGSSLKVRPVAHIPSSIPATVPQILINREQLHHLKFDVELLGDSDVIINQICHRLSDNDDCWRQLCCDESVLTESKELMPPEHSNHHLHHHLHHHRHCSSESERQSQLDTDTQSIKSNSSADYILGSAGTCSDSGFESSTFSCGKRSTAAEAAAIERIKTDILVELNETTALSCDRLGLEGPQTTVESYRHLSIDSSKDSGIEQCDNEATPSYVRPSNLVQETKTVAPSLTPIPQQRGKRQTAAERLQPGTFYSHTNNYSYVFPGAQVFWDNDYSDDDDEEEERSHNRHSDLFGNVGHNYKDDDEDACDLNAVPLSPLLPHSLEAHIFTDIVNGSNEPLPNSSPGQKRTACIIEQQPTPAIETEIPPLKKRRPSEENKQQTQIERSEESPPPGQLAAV
T4 sequence (P06700 whole entry): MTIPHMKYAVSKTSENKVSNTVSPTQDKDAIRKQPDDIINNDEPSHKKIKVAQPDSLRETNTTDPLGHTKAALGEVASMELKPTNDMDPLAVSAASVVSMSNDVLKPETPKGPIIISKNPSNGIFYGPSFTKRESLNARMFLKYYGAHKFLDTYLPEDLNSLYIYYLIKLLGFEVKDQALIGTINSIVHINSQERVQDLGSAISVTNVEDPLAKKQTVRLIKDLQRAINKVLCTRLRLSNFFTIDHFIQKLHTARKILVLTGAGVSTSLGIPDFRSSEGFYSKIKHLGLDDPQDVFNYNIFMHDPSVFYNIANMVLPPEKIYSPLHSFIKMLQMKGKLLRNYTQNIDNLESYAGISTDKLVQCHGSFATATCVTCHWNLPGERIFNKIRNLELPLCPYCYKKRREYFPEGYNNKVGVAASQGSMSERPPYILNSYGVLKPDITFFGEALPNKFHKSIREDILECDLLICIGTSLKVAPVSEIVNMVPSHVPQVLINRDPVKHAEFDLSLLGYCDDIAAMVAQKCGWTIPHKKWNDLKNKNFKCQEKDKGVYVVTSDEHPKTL

SMILES: Oc1ccc(/C=C/c2cc(O)cc(O)c2)cc1 [Resveratrol, 3,5,4′-Trihydroxy-trans-stilbene]
- resveratrol-dependent rate increase, human SIRT1 (human SIRT1; 37° C., 25 μM NAD+, 25 μM p53-382, FIG. 1): rate increases are seen
- resveratrol concentration at which maximum rate stimulation occurred, SIRT1 (human SIRT1; FIG. 1A): > 100 µM
- stimulation of SIRT5Δ1-39 deacetylation activity (SIRT5Δ1-39): similarly stimulated
- resveratrol-dependent rate increase, dSir2 (dSir2): rate increases are seen
- resveratrol-dependent rate increase, ySir2 (ySir2): rate increases are seen
- resveratrol-dependent rate increase, human SIRT3 (human SIRT3): not
- resveratrol activation of E230K mutant SIRT1 (E230K mutant SIRT1): diminished resveratrol activation
- lowering of the Km for the p53-382 peptide (human SIRT5): more than ten-fold
